Target: SIK2 (Homo sapiens, UniProt Q9H0K1)
Test: SIK2 Enzymatic Assay High Version 2 (High ATP)
Type: biochemical
Details: not given
Outline: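 At room temperature, enzyme (6 nM, 2× final) was preincubated with compound for 30 min, then 6 mM ATP and 400 μM HDAC5tide (both 2× final) were added for 2 h. ADP formed was measured by ADP-Glo Max (2 h reagent, 1 h detection) using luminescence.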

SIK2, sequence (Q9H0K1 whole entry, species assumed): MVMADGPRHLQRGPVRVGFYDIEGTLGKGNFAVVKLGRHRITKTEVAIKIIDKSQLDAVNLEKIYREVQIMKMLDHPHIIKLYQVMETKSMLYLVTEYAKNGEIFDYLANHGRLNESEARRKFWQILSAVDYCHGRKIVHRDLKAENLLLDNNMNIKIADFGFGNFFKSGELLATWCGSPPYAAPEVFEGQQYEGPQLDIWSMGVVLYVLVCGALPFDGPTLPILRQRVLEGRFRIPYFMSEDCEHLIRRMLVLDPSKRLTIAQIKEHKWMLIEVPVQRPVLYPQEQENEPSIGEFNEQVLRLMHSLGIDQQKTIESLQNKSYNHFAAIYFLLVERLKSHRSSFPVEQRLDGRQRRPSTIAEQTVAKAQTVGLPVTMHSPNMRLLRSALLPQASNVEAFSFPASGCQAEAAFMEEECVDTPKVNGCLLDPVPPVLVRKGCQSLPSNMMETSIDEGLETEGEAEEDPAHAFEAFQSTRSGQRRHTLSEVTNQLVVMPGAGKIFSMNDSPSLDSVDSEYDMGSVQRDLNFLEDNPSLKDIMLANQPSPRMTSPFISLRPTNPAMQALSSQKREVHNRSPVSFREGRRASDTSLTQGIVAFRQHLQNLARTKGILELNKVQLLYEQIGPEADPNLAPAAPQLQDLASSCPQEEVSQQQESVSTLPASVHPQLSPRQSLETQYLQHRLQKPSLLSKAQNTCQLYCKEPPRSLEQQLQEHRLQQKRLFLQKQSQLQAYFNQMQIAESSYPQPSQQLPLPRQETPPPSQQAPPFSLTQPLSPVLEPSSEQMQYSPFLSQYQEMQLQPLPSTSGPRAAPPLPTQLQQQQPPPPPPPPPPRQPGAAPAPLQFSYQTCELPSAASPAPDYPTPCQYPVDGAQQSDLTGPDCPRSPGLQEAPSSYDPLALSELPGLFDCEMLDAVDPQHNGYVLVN

Row | SMILES | IC50
1 | Cc1cc(-c2ccn3nc(Nc4cc(C(=O)NC(C)C)n(C)n4)cc3c2)c(O[C@H]2C[C@H]3COC[C@@H](C2)N3)cn1 [Example 341, N-isopropyl-2-methyl-5-[[5-[2-methyl-5-[[(1S,5R)-3-oxa-9-azabicyclo[3.3.1]nonan-7-yl]oxy]-4-pyridyl]pyrazolo[1,5-a]pyridin-2-yl]amino]pyrazole-3-carboxamide] | < 0.000847 µM
2 | CCC(=O)c1ccc(O[C@H]2C[C@H]3COC[C@@H](C2)N3)c(-c2ccn3nc(NC(=O)C4CC4)cc3c2)c1 [Example 480, N-[5-[2-[[(1R,5S)-3-oxa-9-azabicyclo[3.3.1]nonan-7-yl]oxy]-5-propanoyl-phenyl]pyrazolo[1,5-a]pyridin-2-yl]cyclopropanecarboxamide] | < 0.000847 µM
3 | CCN1CC[C@H]1COc1cnc(C)cc1-c1ccn2nc(NC(=O)C3CC3)cc2c1 [Example 605, N-[5-[5-[[(2S)-1-ethylazetidin-2-yl]methoxy]-2-methyl-4-pyridyl]pyrazolo[1,5-a]pyridin-2-yl]cyclopropanecarboxamide] | 0.316 µM
4 | CNC(=O)c1c(OC)cc(Nc2cc3cc(-c4cc(C)ncc4OC4C[C@H]5COC[C@@H](C4)N5)ccn3n2)cc1OC (stereo partly drawn) [Example 357, 2,6-dimethoxy-N-methyl-4-[[5-[2-methyl-5-[[(1S,5R)-3-oxa-9-azabicyclo[3.3.1]nonan-7-yl]oxy]-4-pyridyl]pyrazolo[1,5-a]pyridin-2-yl]amino]benzamide] | 0.00101 µM
5 | Cc1cc(-c2ccn3nc(NC(=O)C4CC4)cc3c2)c(OC[C@H]2NCC2(C)C)cn1 [Example 471, N-[5-[5-[[(2S)-3,3-dimethylazetidin-2-yl]methoxy]-2-methyl-4-pyridyl]pyrazolo[1,5-a]pyridin-2-yl]cyclopropanecarboxamide] | 0.0277 µM

Same assay, conditions: enzyme 6 nM, 6 mM ATP and 400 μM HDAC5tide (each 2× final concentration); 30 minutes pre-incubation, 2 hours; ADP-Glo Max luminescence; read-out: SIK2 high ATP IC50 (μM) (Test Example 2)

Row | SMILES | IC50
6 | Cc1cnc(Nc2cc3cc(-c4cc(C)ncc4OCC(C)(C)O)ccn3n2)cn1 [Example 541, 2-methyl-1-[[6-methyl-4-[2-[(5-methylpyrazin-2-yl)amino]pyrazolo[1,5-a]pyridin-5-yl]-3-pyridyl]oxy]propan-2-ol] | 0.0471 µM
7 | Cc1cc(-c2ccn3nc(NC(=O)[C@@H]4C[C@H]4C)cc3c2)c(OC[C@]23C[C@H](CO2)N(C)C3)cn1 [Example 250, (1R,2R)-2-methyl-N-[5-[2-methyl-5-[[(1R,4R)-2-methyl-5-oxa-2-azabicyclo[2.2.1]heptan-4-yl]methoxy]-4-pyridyl]pyrazolo[1,5-a]pyridin-2-yl]cyclopropanecarboxamide] | 0.0217 µM
8 | CNc1nc(C)cc(Nc2cc3cc(-c4cc(O)ncc4OCC(C)(C)C#N)ccn3n2)n1 [Example 674, 3-[[6-hydroxy-4-[2-[[6-methyl-2-(methylamino)pyrimidin-4-yl]amino]pyrazolo[1,5-a]pyridin-5-yl]-3-pyridyl]oxy]-2,2-dimethyl-propanenitrile] | 0.063 µM
9 | CC#Cc1cc(-c2ccn3nc(Nc4ccn(C)n4)cc3c2)c(OCC2(F)CNC2)cn1 [Example 437, 5-[5-[(3-fluoroazetidin-3-yl)methoxy]-2-prop-1-ynyl-4-pyridyl]-N-(1-methylpyrazol-3-yl)pyrazolo[1,5-a]pyridin-2-amine] | < 0.000847 µM
10 | Cc1cc(-c2cn3cc(NC(=O)C4CC4)nc3cn2)c(O[C@H]2CC[C@H](O)CC2)cn1 [Example 653, N-[6-[5-(4-hydroxycyclohexoxy)-2-methyl-4-pyridyl]imidazo[1,2-a]pyrazin-2-yl]cyclopropanecarboxamide] | 0.136 µM
11 | CCn1nc(Nc2cc3cc(-c4cc(C)ncc4OC[C@H]4OCC[C@@H]4O)ccn3n2)cc(C)c1=O [Example 293, 2-ethyl-6-[[5-[5-[[(2R,3S)-3-hydroxytetrahydrofuran-2-yl]methoxy]-2-methyl-4-pyridyl]pyrazolo[1,5-a]pyridin-2-yl]amino]-4-methyl-pyridazin-3-one] | < 0.000847 µM
12 | COc1ccnc(Nc2cc3cc(-c4cc(OC(F)F)ncc4OCC(C)(C)C#N)ccn3n2)n1 [Example 698, 3-[[6-(difluoromethoxy)-4-[2-[(4-methoxypyrimidin-2-yl)amino]pyrazolo[1,5-a]pyridin-5-yl]-3-pyridyl]oxy]-2,2-dimethyl-propanenitrile] | 0.0018 µM
13 | CC#Cc1cc(-c2ccn3nc(NC(=O)C4CC4)cc3c2)c(O[C@@H]2CNC[C@@H]2F)cn1 [Example 281, N-[5-[5-[(3R,4S)-4-fluoropyrrolidin-3-yl]oxy-2-prop-1-ynyl-4-pyridyl]pyrazolo[1,5-a]pyridin-2-yl]cyclopropanecarboxamide] | 0.00102 µM
14 | Cc1cc(-c2cn3cc(Nc4cc(C)nc(C)n4)nc3cn2)c(O[C@H]2CC[C@H](O)CC2)cn1 [Example 507, 4-[[4-[2-[(2,6-dimethylpyrimidin-4-yl)amino]imidazo[1,2-a]pyrazin-6-yl]-6-methyl-3-pyridyl]oxy]cyclohexanol] | 0.0297 µM
15 | CC(C)(C#N)COc1cnc(OC(F)F)cc1-c1ccn2nc(NC(=O)C3CC3)cc2c1 [Example 665, N-[5-[5-(2-cyano-2-methyl-propoxy)-2-(difluoromethoxy)-4-pyridyl]pyrazolo[1,5-a]pyridin-2-yl]cyclopropanecarboxamide] | 0.0244 µM
16 | Cc1cnc(Nc2cc3cc(-c4cc(OC(F)F)ncc4OCC(C)(C)C#N)ccn3n2)cn1 [Example 709, 3-[[6-(difluoromethoxy)-4-[2-[(5-methylpyrazin-2-yl)amino]pyrazolo[1,5-a]pyridin-5-yl]-3-pyridyl]oxy]-2,2-dimethyl-propanenitrile] | 0.00302 µM
17 | Cc1cc(-c2ccn3nc(Nc4cc(C(F)(F)F)c(C(=O)NC(C)C)cn4)cc3c2)c(OCC(C)(C)O)cn1 [Example 650, 6-[[5-[5-(2-hydroxy-2-methyl-propoxy)-2-methyl-4-pyridyl]pyrazolo[1,5-a]pyridin-2-yl]amino]-N-isopropyl-4-(trifluoromethyl)pyridine-3-carboxamide] | 0.0868 µM
18 | COC1(COc2cnc(C)cc2-c2ccn3nc(NC(=O)C4CC4)cc3c2)CNC1 [Example 233, N-[5-[5-[(3-methoxyazetidin-3-yl)methoxy]-2-methyl-4-pyridyl]pyrazolo[1,5-a]pyridin-2-yl]cyclopropanecarboxamide] | 0.00309 µM
19 | Cc1cc(-c2ccn3nc(Nc4cc(C)nc(C)n4)cc3c2)c(OC[C@H](C)C(C)(C)O)cn1 [Example 554, (3S)-4-[[4-[2-[(2,6-dimethylpyrimidin-4-yl)amino]pyrazolo[1,5-a]pyridin-5-yl]-6-methyl-3-pyridyl]oxy]-2,3-dimethyl-butan-2-ol] | 0.0275 µM
20 | Cc1cc(-c2ccn3nc(Nc4cc(C)nc(C(=O)NC5CC5)n4)cc3c2)c(OCC(C)(C)O)cn1 [Example 640, N-cyclopropyl-4-[[5-[5-(2-hydroxy-2-methyl-propoxy)-2-methyl-4-pyridyl]pyrazolo[1,5-a]pyridin-2-yl]amino]-6-methyl-pyrimidine-2-carboxamide] | 0.0295 µM
21 | Cc1cc(-c2ccn3nc(Nc4cc(C)nc(C)n4)cc3c2)c(OC[C@](C)(N)C(F)(F)F)cn1 (single isomer, unassigned) [Example 304, (*S)-5-[5-(2-amino-3,3,3-trifluoro-2-methyl-propoxy)-2-methyl-4-pyridyl]-N-(2,6-dimethylpyrimidin-4-yl)pyrazolo[1,5-a]pyridin-2-amine] | 0.0028 µM
22 | CC#Cc1cc(-c2ccn3nc(Nc4cnn(C)c4)cc3c2)c(OC[C@H]2OCC[C@@H]2O)cn1 [Example 300, (2R,3S)-2-[[4-[2-[(1-methylpyrazol-4-yl)amino]pyrazolo[1,5-a]pyridin-5-yl]-6-prop-1-ynyl-3-pyridyl]oxymethyl]tetrahydrofuran-3-ol] | 0.00639 µM

— US20240158392A1 (Janssen Biotech, Inc., priority 2021, published 2024)
